Holding throughout (type): cell-based
Assay [1] is described as follows: Mitochondria toxicity assay with PC3 cells, in-cell ELISA COX-1. Particulars: 5 days treatment. How it is done: (§1) Exemplary compounds were tested for inhibition of expression of mitochondria DNA encoded proteins COX-1 […]. SDH-A (succinate dehydrogenase-A) is a control mitochondria protein encoded by nuclear DNA. Reduction in COX-1 expression indicates off target inhibition of mitochondria DNA synthesis which leads to mitochondrial toxicity. Assay procedures and results are described below.
(§2) PC3 cells were purchased from ATCC and cultured in F-12 Kaighn's modified medium (Hyclone), 10% heat-inactivated fetal bovine serum (Invitrogen), 1% Penicillin-Streptomycin (Invitrogen). PC3 cells were treated with a dose titration of a test compound on 96 well plates for 5 days at 37° C., 5% CO2 in a humidified incubator. The treatment plates are duplicated, one for in-cell ELISA for mitochondria proteins and one for cytotoxicity.
(§3) In-cell ELISA was performed to measure mitochondrial proteins using MitoBiogenesis In-Cell ELISA kit (Abcam) per manufacturer's instruction. The medium was aspirated from the compound treated cells, 100 μl per well of 4% paraformaldehyde (Solarbio) was added and cells were incubated at room temperature for 20 minutes. The cells were washed three times with PBS. 100 μl of 0.5% acetic acid was added per cell, and the cells were incubate at room temperature for 5 minutes. Cells were washed once with PBS. 100 μl per well of Permeabilization Buffer was added, and the cells incubate at room temperature for 30 minutes. The permeabilization buffer was removed and 200 μl per well 2× Blocking Buffer was added and the cells were incubated at room temperature for 2 hours. After removing the Blocking Buffer 100 μl per well of primary antibody to SDH-A or COX-1 was added, and the cells were incubated at 4° C. overnight. The primary antibody solution was removed and cells were washed 3 times with the Wash Buffer. 100 μl per well of AP- and HRP-labelled secondary antibodies was added, and the cells were incubated at room temperature for 1 hour. The cells were then washed 4 times with the Wash Buffer. For SDH-A detection, 100 μl per well AP Development Solution was added, and the cells were incubated at room temperature for 10 minutes. Cells were then read on CLARTO star^plus microplate reader (BMG Labtech) for kinetic readings at 405 nm for 5 minutes. […] The cells were then read on CLARTO star^plus microplate reader (BMG Labtech) for kinetic readings at 600 nm for 15 minutes.
(§4) In the table “A” represents values<1.0 μM; “B” represents values from >1.0 μM to ≤10.0 μM; “C” represents values from >10.0 μM to ≤50.0 μM; “D” represents values from >50.0 μM to ≤100.0 μM; and “E” represents values>100.0 μM.
In general terms: An ELISA detects its analyte on a solid surface through an enzyme-linked reagent.

Assay [2] deals with SDH-A (succinate dehydrogenase-A). The assay is described as follows: Mitochondria toxicity assay with PC3 cells, in-cell ELISA SDH-A. Conditions: 5 days treatment. As to the method:
as §1, §2, §3, §4

The test system of the next assay is PC3 cells. The experiment in a line: Mitochondria toxicity assay with PC3 cells, cytotoxicity (Cell Titer Glo). Conditions: Homo sapiens, PC-3, 120 h, 5 days treatment. As to the method: as §2
For the cytotoxicity assay, the medium from the cell viability plate was removed, 50 μL per well of Cell Titer Glo (Promega, G9683) was added. Then the cells incubated for 30 minutes at room temperature. Luminescence was read by Envision (PerkinElmer 2105).
as §4
(In general: ATP-based viability assays read luminescence as a measure of living cells.)

Drawing on patent publication US12187758B2 (ROME Therapeutics, Inc., priority 2022, dated 2025), this text covers IC50 for 20 molecules.

Where only a bound is given, the exact number is not on record here.

In general, IC50 refers to the midpoint of a concentration-inhibition curve. A high value points to weaker potency in that assay.

Regarding `Nc1nc(F)nc2c1ncn2[C@H]1C[C@H](O)C(CO)(CO)O1` [Compound 10, ((3S,5R)-5-(6-amino-2-fluoro-9H-purin-9-yl)-3-hydroxytetrahydrofuran-2,2-diyl) dimethanol], the IC50 fell in the range of 1 to 10 µM in assay [1], 1 to 10 µM in assay [2] and 10 to 50 µM with PC3 cells.
Regarding `Cc1cn([C@H]2C[C@H](O)[C@](CO)(N=[N+]=[N-])O2)c(=O)[nH]c1=O` [Compound 30, 1-((2R,4S,5R)-5-azido-4-hydroxy-5-(hydroxymethyl)tetrahydrofuran-2-yl)-5-methylpyrimidine-2,4(1H,3H)-dione], the 50% inhibitory concentration (IC50) (in assay [1]; in assay [2]; with PC3 cells) was over 100 µM each time.
In the case of `CO[C@]1(CO)O[C@@H](n2ccc(N)nc2=O)C[C@@H]1O` [Compound 48, 4-amino-1-((2R,4S,5R)-4-hydroxy-5-(hydroxymethyl)-5-methoxytetrahydrofuran-2-yl)pyrimidin-2(1H)-one], the values for the IC50 (in assay [1]; in assay [2]; in the assay with PC3 cells) were 1 to 10 µM, 1 to 10 µM and 10 to 50 µM, respectively.
Consider `[N-]=[N+]=N[C@]1(CO)O[C@@H](n2ccc(N)nc2=O)C[C@@H]1O` [Compound 49, 4-amino-1-((2R,4S,5R)-5-azido-4-hydroxy-5-(hydroxymethyl)tetrahydro-furan-2-yl)pyrimidin-2(1H)-one], for which the 50% inhibitory concentration (IC50) (in assay [1]; in assay [2]; in the assay with PC3 cells) was under 1 µM in each case.
On to `CO[C@H]1C[C@H](n2ccc(N)nc2=O)O[C@@]1(CO)CCl` [Compound 54, 4-amino-1-[(2R,4S,5R)-5-(chloromethyl)-5-(hydroxymethyl)-4-methoxyoxolan-2-yl]-3,4-dihydropyrimidin-2-one], for which the IC50 (in assay [1]; in assay [2]; in the assay on PC3 cells) was over 100 µM throughout.
Regarding `Nc1ccn([C@H]2C[C@@H](O)[C@](CO)(CCl)O2)c(=O)n1` [Compound 59, 4-amino-1-[(2R,4R,5R)-5-(chloromethyl)-4-hydroxy-5-(hydroxymethyl)oxolan-2-yl] pyrimidin-2-one], the IC50 (in assay [1]; in assay [2]; with PC3 cells) was over 100 µM each time.
In the case of `Nc1nc(=O)n([C@H]2C[C@H](O)[C@](CO)(CCl)O2)cc1C(F)(F)F` [Compound 71, 4-amino-1-((2R,4S,5R)-5-(chloromethyl)-4-hydroxy-5-(hydroxymethyl)tetrahydrofuran-2-yl)-5-(trifluoromethyl)pyrimidin-2(1H)-one], the IC50 (in assay [1]; in assay [2]; in the assay on PC3 cells) was over 100 µM each time.
Regarding `Nc1ncnn2c([C@H]3C[C@H](O)[C@](CO)(CF)O3)ccc12` [Compound 79, (2R,3S,5R)-5-(4-aminopyrrolo[2,1-f] [1,2,4]triazin-7-yl)-2-(fluoromethyl)-2-(hydroxymethyl) tetrahydrofuran-3-ol], the IC50 (in assay [1]; in assay [2]; with PC3 cells) was over 100 µM throughout.
With `Nc1nc2c(ncn2[C@@H]2O[C@@](CO)(CF)[C@@H](O)[C@@H]2F)c(=O)[nH]1` [Compound 83, 2-amino-9-((2R,3S,4R,5R)-3-fluoro-5-(fluoromethyl)-4-hydroxy-5-(hydroxymethyl)tetrahydrofuran-2-yl)-1,9-dihydro-6H-purin-6-one], the IC50 (in assay [1]; in assay [2]; in the assay with PC3 cells) was 10 to 50 µM in each case.
`Nc1nc(F)nc2c1ncn2[C@@H]1O[C@@](CO)(CF)[C@@H](O)[C@@H]1F` [Compound 84]: the IC50 in assay [1] fell in the range of 10 to 50 µM; in assay [2], 50 to 100 µM; with PC3 cells, 10 to 50 µM.
As for `Nc1nc2c(ncn2[C@@H]2O[C@@](CO)(CCl)[C@@H](O)[C@@H]2O)c(=O)[nH]1` [Compound 94, 2-amino-9-[(2R,3S,4S,5R)-5-(chloromethyl)-3,4-dihydroxy-5-(hydroxymethyl)oxolan-2-yl]-1H-purin-6-one], the IC50 (in assay [1]; in assay [2]; in the assay on PC3 cells) was over 100 µM in each case.
As for `Nc1nc(=O)n([C@@H]2O[C@@](CO)(C(F)(F)F)[C@@H](O)[C@@H]2O)cc1F` [Compound 95, 4-amino-1-((2R,3S,4S,5R)-3,4-dihydroxy-5-(hydroxymethyl)-5-(trifluoromethyl)tetrahydrofuran-2-yl)-5-fluoropyrimidin-2(1H)-one], the half-maximal inhibitory concentration (IC50) (in assay [1]; in assay [2]; in the assay on PC3 cells) was over 100 µM each time.
For `Nc1nc(=O)n([C@@H]2O[C@@](CO)(CI)[C@@H](O)[C@@H]2F)cc1F` [Compound 129, 4-amino-5-fluoro-1-((2R,3S,4R,5R)-3-fluoro-4-hydroxy-5-(hydroxymethyl)-5-(iodomethyl)tetrahydrofuran-2-yl)pyrimidin-2(1H)-one], the IC50 (in assay [1]; in assay [2]; with PC3 cells) was over 100 µM throughout.
Turning to `Nc1nc(=O)n([C@@H]2O[C@](/C=C\Cl)(CO)[C@@H](O)[C@@H]2F)cc1F` [Compound 132, 4-amino-1-[(2R,3S,4R,5R)-5-(2-chloroethenyl)-3-fluoro-4-hydroxy-5(Z)-(hydroxymethyl)oxolan-2-yl]-5-fluoropyrimidin-2-one], the IC50 (in assay [1]; in assay [2]; in the assay on PC3 cells) was over 100 µM throughout.
Regarding `CSC[C@]1(CO)O[C@@H](n2cc(F)c(N)nc2=O)[C@@H](F)[C@@H]1O` [Compound 135, 4-amino-5-fluoro-1-[(2R,3S,4R,5R)-3-fluoro-4-hydroxy-5-(hydroxymethyl)-5-[(methylsulfanyl)methyl]oxolan-2-yl] pyrimidin-2-one], the half-maximal inhibitory concentration (IC50) lay in the range of 1 to 10 µM in assay [1], 10 to 50 µM in assay [2] and 10 to 50 µM in the assay on PC3 cells.
For the molecule `NC(=O)[C@]1(CO)O[C@@H](n2cc(F)c(N)nc2=O)[C@@H](F)[C@@H]1O` [Compound 138, (2R,3R,4S,5R)-5-(4-amino-5-fluoro-2-oxopyrimidin-1-yl)-4-fluoro-3-hydroxy-2-(hydroxymethyl) oxolane-2-carboxamide], the IC50 (in assay [1]; in assay [2]; with PC3 cells) was over 100 µM each time.
Consider `NC[C@]1(CO)O[C@@H](n2cc(F)c(N)nc2=O)[C@@H](F)[C@@H]1O` [Compound 139, 4-amino-1-[(2R,3S,4R,5R)-5-(aminomethyl)-3-fluoro-4-hydroxy-5-(hydroxymethyl)oxolan-2-yl]-5-fluoropyrimidin-2-one], for which the IC50 (in assay [1]; in assay [2]; with PC3 cells) was over 100 µM in each case.
In the case of `CC(O)[C@]1(CO)O[C@@H](n2cc(F)c(=O)[nH]c2=O)[C@@H](F)[C@@H]1O` (stereo partly drawn) [Compound 162, 5-fluoro-1-[(2R,3S,4R,5S)-3-fluoro-4-hydroxy-5-(1-hydroxyethyl)-5-(hydroxymethyl)oxolan-2-yl]-3H-pyrimidine-2,4-dione], the IC50 (in assay [1]; in assay [2]; in the assay on PC3 cells) was over 100 µM throughout.
As to `O=c1[nH]c(=O)n([C@@H]2O[C@@](CO)(CCl)[C@@H](O)[C@@H]2F)cc1F` [Compound 163, 1-[(2R,3S,4R,5R)-5-(chloromethyl)-3-fluoro-4-hydroxy-5-(hydroxymethyl)oxolan-2-yl]-5-fluoro-3H-pyrimidine-2,4-dione], the 50% inhibitory concentration (IC50) (in assay [1]; in assay [2]; in the assay on PC3 cells) was over 100 µM in each case.
With `N#C[C@]1(CO)O[C@@H](n2cc(F)c(N)nc2=O)[C@@H](F)[C@@H]1O` [Compound 166], the concentration for half-maximal inhibition (IC50) (in assay [1]; in assay [2]; with PC3 cells) was over 100 µM throughout.
